This is an account of results in patent publication US6465396B1, “Method to promote growth of a plant” (Nara Institute of Science and Technology, priority 1999, dated 2002).

Assay [1] has as its system rice (Oryza sativa L.: Hinihikari). In words: Photo-oxidation damage, photosynthetic ability as oxygen generation rate, rice leaves. The conditions noted are these: for residual photosynthetic ability (oxygen generation rate): when control sample was reduced to 30%, concentration not given, FIG. 15.
For assay [2], the system named is rice.
Description: The seeds of rice (Oryza sativa L.: Hinihikari) were used for the experiments. The plants were seeded under a vermiculight. They were grown under a light intensity of 150 μmol quanta/m^2.s for 16 hours in the light and 8 hours in the dark. Normal leaves derived from the plant bodies of 2 to 4 weeks old were used for the following experiments.
(§3) In the case of rice plant, a portion containing petiole was excised from the plant bodies and it was immersed into 10 ml of sample compound in a tube. It was incubated for 30 min at 25° C. under 150 μmol quanta/m^2·s of illumination. […] After the administration, water in the leaf disk was excluded, the leaf was set in the chamber and the ability of photosynthesis was measured on the leaf. […]
(§4) After measurement of rate of photosynthesis as described above, the air without carbon dioxide was introduced into the chamber and the light was illuminated at the intensity of 1600 μmol quanta/m^2·s for a certain period. […] The rate of oxygen generation was measured after this treatment and inhibition of photosynthetic ability caused by photo-oxidation damage was thus evaluated.
(§5) To estimate sanity of photo-system, the fluorescence originated from chlorophyl, the center of photo-system, was measured on rice under the same condition described above after photo-oxidation damage. […] The fluorescence was measured before and after photo-oxidation damage to estimate Fv/Fm value.
Assay [3] deals with kidney bean. Particulars: FIG. 19.
Description: The seeds of kidney bean (Phaseolus vulgaris L.: tsurunashiinngenn) were used for the experiments. The plants were seeded under a vermiculight. They were grown under the light intensity of 150 μmol quanta/m^2·s. Normal leaves derived from the plant bodies of 2 to 4 weeks old were used for the experiments.
as §3, §4, §5
For assay [4], the system named is formate dehydrogenase (FDH). The conditions noted are these: root of rice cultivated in the presence of 1.4 mM formic acid, 25° C., two weeks; FIG. 12. Here is the method:
Then the alteration of FDH activity by administration of formic acid was investigated. The rice plant bodies were cultivated in the presence or absence of 1.4 mM formic acid at 25° C. for two weeks. The aerial part and the ground part (root) was separated and the crude enzyme solution was prepared from each part. The enzyme solution was prepared to 1.5 mg/ml and FDH activities of the samples were measured. The FDH activity was measured using [^13C] formic acid as the substrate and detecting [^13C] CO2 in the supernatant by GC-MS.

Assay [5] deals with FDH gene. Particulars: ground part (root) of rice; pretreatment with formic acid administration; FIG. 14.
Description: In the case of utilization for northern analysis, total RNA was isolated from leaf and root of rice cultivated under condition described above, using Isogen RNA purification kit (Nippon gene).
RNA was prepared from the aerial part and the ground part (root) respectively and the northern analysis was performed on these samples. Forty μg of the total RNA was applied to each lane and electrophoresis was performed on 1% agarose gel (containing 2.2 M formaldehyde). The gel was charged for the capillary blotting using Hybond N+membrane (Amersham) using 20×SSC. The hybridization was performed according to instruction of AlkPhosDIREST (Amersham) and detection was performed using CDP-Star (Amersham). The FDH cDNA (open reading frame:1130 bp), amplified by PCR, was used as probe DNA.
Assay [6] concerns tabacco. The conditions noted are these: FIG. 18.
Description: The seeds of tabacco (Nicotina tabacum L.: SRI) were used for the experiment. The plants were seeded under a vermiculight. They were grown under the light intensity of 150 μmol quanta/m^2·s. Normal leaves derived from the plant bodies of 4 to 6 weeks old were used for the experiments.
In the case of rice plant, a portion containing petiole was excised from the plant bodies and it was immersed into 10 ml of sample compound in a tube. It was incubated for 30 min at 25° C. under 150 μmol quanta/m^2·s of illumination. After administration of sample compounds, the leaves of rice were sliced and put in a chamber with diameter of 35 mm and the rate of oxygen generation (μmol O2/m^2·s) was estimated. In the case of other plants, a leaf disk with diameter of 35 mm was prepared prior to the experiment. […] After the administration, water in the leaf disk was excluded, the leaf was set in the chamber and the ability of photosynthesis was measured on the leaf. […]
After measurement of rate of photosynthesis as described above, the air without carbon dioxide was introduced into the chamber and the light was illuminated at the intensity of 1600 μmol quanta/m^2·s for a certain period. […] The rate of oxygen generation was measured after this treatment and inhibition of photosynthetic ability caused by photo-oxidation damage was thus evaluated. […]
For assay [7], the system named is kidney bean (Phaseolus vulgaris L.: tsurunashiinngenn). The conditions noted are these: 2 mM, FIG. 5. Here is the method: (§1) The plants were seeded under a vermiculight.
(§2) Generation of oxygen was measured by clark type oxygen electrode. The cuvette (LD2/2 type), the oxygen electrode controller (CB 1-D3 type) and the light source (LS-2, Hansatec corp.) were adopted as components of the measuring device. The chamber of cuvette contained in this device is composed of combination of a chamber, capable of hermetically sealing with diameter of 35 mm and volume of 5 ml, and an oxygen electrode. As upper side of the chamber is transparent, arbitrary intensity of light can be illuminated. The plant body described above, after administration of formic acid, was enclosed in the chamber and sealed hermetically. It was illuminated using a halogen lamp as the light source, and the rate of oxygen generation was measured under the air containing 5% of carbon dioxide. Unless specified otherwise, the measurement was performed under the light adjusted to a intensity of 253 μmol quanta/m^2·s using a red filter or an attenuation filter. The oxygen generation was calculated by dividing the obtained value with the surface area of the leaf.

For assay [8], the system named is tabacco (Nicotina tabacum L.: SRI). Particulars: 2 mM, FIG. 6. Here is the method:
as §1, §2

Assay [9] deals with rice plant bodies. The experiment in a line: Plant growth test, rice. In kind it is in vivo, Oryza sativa L. The conditions noted are these: 2 weeks cultivation. From the text: The effect of formate salts addition observed on plant growth was investigated. The seeds of rice were sterilized and seeded into a glass tube (130 mm×40 mm I.D) containing medium described below. The contents of the medium are ½MS salt, 0.1% gellan gum and various concentrations of sodium formate. The pH was adjusted to 6.0 by addition of 1N sodium hydroxide and the medium was sterilized by autoclave treatment. […] After cultivation for 2 weeks under this condition, the extent of growth was estimated by measurement of length of the aerial part and wet weight of plant bodies.

SMILES strings stand for the structures. Read-outs that look alike come from different tables or passages of the source.

As for `O=C[O-].[Na+]` [formate salt], the “photosynthetic ability under various light intensities after photo-oxidation damage” value in assay [1] (formate salt, strong light illumination (inclination not altered under weak light), FIG. 3) is listed as “inhibited damage on photosynthetic ability under strong light illumination”. Moreover, in [1], the “residual photosynthetic ability (oxygen generation rate)” value was found to be 60%.
Regarding `O=CO` [formate], in assay [2] (2 mM, FIG. 7), the “damage on photo-system (Fv/Fm) caused by photo-oxidation damage” value is given as “avoided”.
On to `O=CO` [formic acid], for which the “damage on photo-system by chlorophyl fluorescence analysis” value in assay [3] (2 mM) and in assay [6] (2 mM) was “potency” in each case. Further, the “FDH activity compared to control group” value in assay [4] is on record as “about twice”. In assay [5], the “expression of FDH gene” value is on record as “significant increase”.
In the case of `CO` [methanol], the “damage on photo-system by chlorophyl fluorescence analysis” value in assay [3] (100 mM) and in assay [6] (100 mM) was “significantly alleviated” in each case. In addition, the “reduction of Fv/Fm value caused by photo-oxidation damage” value in assay [2] (25 mM or 50 mM, FIG. 17) is listed as “significant inhibition”. Also, in [1] (methanol, especially under strong light illumination, FIG. 16), the “photosynthetic ability under various light intensities after photo-oxidation damage” value was “avoided photo-oxidation damage”. The “residual photosynthetic ability (oxygen generation rate)” value in assay [1] was determined as 70%.
Consider `O=C[O-].[K+]` [potassium formate, Potassium formate], for which the “effect on oxygen generation rate reduction caused by photo-oxidation damage” value in assay [7] and in assay [8] was “exhibited inhibition” throughout. Moreover, the “dose-dependency of protection on photo-oxidation damage” value in assay [1] (2 mM or 4 mM, FIG. 4) is “optimum protection”. The “oxygen generation activity retained after photo-oxidation damage” value in assay [1] (2 mM, 8 min strong light illumination in the absence of carbon dioxide, control reduced to about 30%, FIG. 1) is on record as 90%. The “time course of damage on photosynthetic ability” value in assay [1] (2 mM, photo-oxidation damage treatment 2 min, 4 min, FIG. 2) is reported as “the damage on photosynthetic ability was inhibited”.
Regarding `O=C[O-].[Na+]` [sodium formate], the “growth promotion, wet weight of plant bodies” value in assay [9] (125 ppm in medium, FIG. 8) came to 25%. Besides, in assay [9] (125 ppm in medium, FIG. 9), the “growth promotion, length of aerial part” value is 25%. Further, in assay [9] (1000 ppm in medium), the growth promotion effect result was “disappeared”.
